Measurements published in patent publication US20240042015A1 (Orna Therapeutics, Inc., priority 2020, published 2024).
Entries after “also recorded” stand apart in the source; their conditions may differ.

Key:
splenic immune cells = test: In vivo Cre circRNA LNP transfection in Ai9 Cre reporter mice, tdTomato+ splenic immune cells; details: 0.5 mg/kg RNA intravenously, 48 hr
Description: Circular RNAs encoding Cre recombinase (Cre) are encapsulated into lipid nanoparticles as previously described. Female, 6-8 week old B6.Cg-Gt(ROSA)26Sortm9(CAG-tdTomato)Hze/J (Ai9) mice were dosed with lipid nanoparticles at 0.5 mg/kg RNA intravenously. Fluorescent tdTomato protein was transcribed and translated in Ai9 mice upon Cre recombination, meaning circular RNAs have been delivered to and translated in tdTomato+ cells. After 48 hr, mice were euthanized and the spleens were harvested, processed into a single cell suspension, and stained with various fluorophore-conjugated antibodies for immunophenotyping via flow cytometry.
Ai9 mice injected with PBS represented background tdTomato fluorescence.
FIG. 45C illustrates the proportion of additional splenic immune cell populations expressing tdTomato with Lipids 10a-27 and 10a-26 (mean+std. dev., n=3), which also include NK cells (NKp46+, TCR-B−), classical monocytes (CD11b+, Ly-6G−, Ly-6C_hi), nonclassical monocytes (CD11b+, Ly-6G−, Ly-6C_lo), neutrophils (CD11b+, Ly-6G+), and dendritic cells (CD11c+, MHC-II+).
Ai9 mice (B6.Cg-Gt(ROSA)26Sortm9(CAG-tdTomato)Hze/J, female, 6-8 weeks, n=3 per group) were injected i.v. with 0.5 mg/kg Cre circRNA LNPs or PBS. Ai9 mice transcribe and translate the fluorescent reporter tdTomato upon Cre recombination; meaning cells which are tdTomato+ have successfully been transfected with Cre circRNA. After 48 hours, mice were euthanized and their spleens were collected and manually processed into single cell suspensions. The splenocytes were stained for dead cells (LiveDead Fixable Aqua, Thermo) and with anti-mouse antibodies (TCR-B chain, BV421, H57-597; CD45, BV711, 30-F11; CD11b, BV785, ICRF44; NKp46, AF647, 29A1.4; CD19, APC/750, 6D5; TruStain FcX, 93; all antibodies from Biolegend) at 1:200 ratio. Flow cytometry was performed using an Attune Nxt Flow Cytometer (Thermo).

CD-1 or c57BL/6J mice = test: In vivo IVIS analysis of FLuc circRNA LNPs (whole body and ex vivo organs); details: for spleen to liver ratios: ex vivo IVIS analysis of tissues
Description: (§1) Lipid Nanoparticles (LNPs) were formed using a Precision Nanosystems Ignite instrument with a ‘NextGen’ mixing chamber. […] A 3:1 aqueous to ethanol mixing ratio was used. The formulated LNP then were dialyzed in 1 L of water and exchanged 2 times over 18 hours. Dialyzed LNPs were filtered using 0.2 µm filter. Prior to in vivo dosing, LNPs were diluted in PBS. LNP sizes were determined by dynamic light scattering. A cuvette with 1 mL of 20 μg/mL LNPs in PBS (pH 7.4) was measured for Z-average using the Malvern Panalytical Zetasizer Pro. The Z-average and polydispersity index were recorded.
as §1, with “formulated LNPs were” for “formulated LNP”, “then” for “then were”
as §1, with “formulated LNPs were” for “formulated LNP”, “then” for “then were”, “of 1×PBS” for “of water”
Female CD-1 or female c57BL/6J mice ranging from 22-25 g were dosed at 0.5 mg/kg RNA intravenously. Six hours after injection, mice were injected intraperitoneally with 200 μL of D-luciferin at 15 mg/mL concentration. 5 minutes after injection, mice were anesthetized using isoflurane, and placed inside the IVIS Spectrum In Vivo Imaging System (Perkin Elmer) with dorsal side up. Post 10 minutes injection, mice were scanned for luminescence. Mice were euthanized and organs were extracted within 25 minutes of luciferin injection to scan for luminescence in liver, spleen, kidneys, lungs, and heart. Images (FIGS. 33A-B, 34A-B, 35A-B) were analyzed using Living Images (Perkin Elmer) software. Regions of interest were drawn to obtain flux and average radiance and analyzed for biodistribution of protein expression (FIG. 32A-B).

primary human T cells = test: LNP transfection of primary human activated T cells with FLuc circRNA with or without ApoE3; assay type: cell-based; details: 4 independent donors
Description: Primary human T cells from independent donors were stimulated with aCD3/aCD28 and allowed to proliferate for 6 days in the presence of human serum and IL-2. Then, 100,000 cells were plated in a 96 well plate and LNPs containing circRNA coding for Firefly Luciferase (FLuc) were added to the cells at 200 ng RNA/well with or without Apolipoprotein E3 (ApoE3). After 24-hour incubation, luminescence was quantified using the Bright-Glo Luciferase Assay System (Promega) according to manufacturer's instructions and background luminescence from cells not treated with LNPs was subtracted. […] (See Example 70 for LNP formulation procesure, e.g., for 10a-27 (5.7A), 10a-26 (5.7A), 10a-27 (4.5D), and 10a-26 (4.5D) LNPs.)

SMILES	delivery of circular RNAs to splenic immune cell subsets (splenic immune cells)	spleen to liver ratios (CD-1 or c57BL/6J mice)	further results
CCCCCCCCC(CCCCCC)C(=O)OCCCCCCN(CCCCCCOC(=O)C(CCCCCC)CCCCCCCC)CCCn1ccnc1 (stereo not drawn) [Lipid 10a-26, ((3-(1H-imidazol-1-yl)propyl)azanediyl)bis(hexane-6,1-diyl) bis(2-hexyldecanoate)]	effective at delivering circular RNAs to many splenic immune cell subsets	maintaining the desired spleen to liver ratios	proportion of splenic immune cells expressing tdTomato (transfection) (splenic immune cells): significantly higher myeloid and T cell transfection; ex vivo IVIS analysis of tissues, overall expression (CD-1 or c57BL/6J mice; 0.5 mg/kg RNA intravenously): increased overall expression; whole-body total flux (CD-1 or c57BL/6J mice; 0.5 mg/kg RNA intravenously, six hours, compared to LNPs made with lipids 22-S14 and 93-S14): increased whole-body total flux
CCCCCCCCC(CCCCCC)C(=O)OCCCCCCN(CCCCCCOC(=O)C(CCCCCC)CCCCCCCC)CCCn1ccnc1C (stereo not drawn) [Lipid 10a-27, ((3-(2-methyl-1H-imidazol-1-yl)propyl)azanediyl)bis(hexane-6,1-diyl) bis(2-hexyldecanoate)]	effective at delivering circular RNAs to many splenic immune cell subsets		Firefly luminescence (primary human T cells): generally produced higher luminescence; proportion of splenic immune cells expressing tdTomato (transfection) (splenic immune cells; 0.5 mg/kg): significantly higher myeloid and T cell transfection; also recorded: transfect significantly more splenic immune cells
CCCCCCCCCOC(=O)CCCCCCCN(CCCCCCCC(=O)OC(CCCCCCCC)CCCCCCCC)CCCn1ccnc1 [Lipid 10a-53, heptadecan-9-yl 8-((3-(1H-imidazol-1-yl)propyl)(8-(nonyloxy)-8-oxooctyl)amino)octanoate]		maintaining the desired spleen to liver ratios	
CCCCCCCCCOC(=O)CCCCCCCN(CCCCCCCC(=O)OC(CCCCCCCC)CCCCCCCC)CCCn1ccnc1C [Lipid 10a-54, heptadecan-9-yl 8-((3-(2-methyl-1H-imidazol-1-yl)propyl)(8-(nonyloxy)-8-oxooctyl)amino)octanoate]		maintaining the desired spleen to liver ratios	
CCCCCCCCCOC(=O)CCCCCCCN(CCO)CCCCCCCC(=O)OC(CCCCCCCC)CCCCCCCC [Lipid 10b-15]	effective at delivering circular RNAs to many splenic immune cell subsets	maintaining the desired spleen to liver ratios	
